Results taken from patent publication US7381749B2, “Sulfonamides as inhibitors of histone deacetylase for the treatment of disease” (Kalypsys, Inc., priority 2004, dated 2008).

Experiments:
HDAC = experiment: In vitro HDAC-inhibition assay (Fluor de Lys fluorescent substrate); type: biochemical; details: HDAC enzyme source (e.g. partially purified nuclear extract or immunopurified HDAC complexes)
Protocol: In vitro HDAC-Inhibition Assay:
This assay measures a compound's ability to inhibit acetyl-lysine deacetylation in vitro and was used as both a primary screening method as well as for IC50 determinations of confirmed inhibitors. The assay is performed in vitro using an HDAC enzyme source (e.g. partially purified nuclear extract or immunopurified HDAC complexes) and a proprietary fluorescent substrate/developer system (HDAC Quantizyme Fluor de Lys Fluorescent Activity Assay, BIOMOL). The assay is run in 1,536-well Greiner white-bottom plates using the following volumes and order of addition: • Step 1: Enzyme (2.5 ul) source added to plate (from refrigerated container) • Step 2: Compounds (50 nl) added with pin transfer device • Step 3: Fluor de Lys (2.5 ul) substrate added, incubate at RT, 30 minutes • Step 4: Developer (5 ul) solution is added (containing TSA), to stop reaction • Step 5: Plate Reader—data collection • The deacetylated fluorophore is excited with 360 nm light and the emitted light (460 nm) is detected on an automated fluorometric plate reader (Aquest, Molecular Devices).

HDAC in cells = experiment: Cellular IC50 (cellular assays: histone hyperacetylation cytoblot / differential cytotoxicity); type: cell-based; details: transformed cell lines (e.g. HeLa, A549, MCF-7); cell line not specified
Protocol: These two secondary assays evaluates a compound's ability to inhibit HDAC in cells by measuring cellular histone acetylation levels. The cytoblot facilitates quantitative EC50 information for cellular HDAC inhibition. Transformed cell lines (e.g. HeLa, A549, MCF-7) are cultured under standard media and culture conditions prior to plating.
Cells (approx. 2,500/well) are allowed to adhere 10-24 hours to wells of a 384-well Greiner PS assay plate in media containing 1-5% serum. Cells are treated with appropriate compound and specific concentrations for 0 to 24 hours. Cells are washed once with PBS (60 ul) and then fixed (95% ethanol, 5% acetic acid or 2% PFA) for 1 minute at RT (30 ul). Cells are blocked with 1% BSA for 1 hour and washed and stained with antibody (e.g. anti-Acetylated Histone H3, Upstate Biotechnology), followed by washing and incubation with an appropriate secondary antibody conjugated to HRP or fluorophore. For luminescence assays, signal is generated using Luminol substrate (Santa Cruz Biotechnology) and detected using an Aquest plate reader (Molecular Devices).
Differential Cytotoxicity Assay:
HDAC inhibitors display differential cytotoxicity toward certain transformed cell lines. Cells are cultured according to standard ATCC recommended conditions that are appropriate to each cell type. Compounds were tested for their ability to kill different cell types (normal and transformed) using the ATPlite luminescence ATP detection assay system (Perkin Elmer). Assays are run in either 384-well or 1536-well Greiner PS plates. Cells (30 ul or 5 ul, respectively) are dispensed using either multichannel pipette for 384-well plates, or proprietary Kalypsys bulk liquid dispenser for 1536-well plates. Compounds added using proprietary pin-transfer device (500 nL or 5 nL) and incubated 5 to 30 hours prior to analysis. Luminescence is measured using Aquest plate reader (Molecular Devices).

Row | Compound | IC50 (HDAC) | IC50 (HDAC in cells)
1 | CC(=O)SCC(=O)c1ccc(NS(=O)(=O)c2ccccn2)cc1 [Example 51, Thioacetic acid S-{2-oxo-2-[4-(pyridine-2-sulfonylamino)-phenyl]-ethyl}ester] | < 1000 nM | < 1000 nM
2 | CC(=O)SCC(=O)c1ccc(NS(=O)(=O)c2cccnc2)cc1 [Example 52, Thioacetic acid S-{2-oxo-2-[4-(pyridine-3-sulfonylamino)-phenyl]-ethyl}ester] | < 1000 nM | < 10000 nM
3 | CC(=O)SCC(=O)c1ccc2c(c1)CCN2S(=O)(=O)c1ccccn1 [Example 53, Thioacetic acid S-{2-oxo-2-[1-(pyridine-2-sulfonyl)-2,3-dihydro-1H-indol-5-yl]-ethyl}ester] | < 1000 nM | < 1000 nM

Now from value to molecule, other results behind:

Row | IC50 (HDAC) | Compound | IC50 (HDAC in cells)
4 | < 1000 nM | CC(=O)SCC(=O)c1ccc(NS(=O)(=O)c2ccc(OC(F)(F)F)cc2)cc1F [Example 47, Thioacetic acid S-{2-[2-fluoro-4-(4-trifluoromethoxy-benzenesulfonylamino)-phenyl]-2-oxo-ethyl}ester] | < 1000 nM
5 | < 1000 nM | CC(=O)SCC(=O)c1ccc2c(c1)CCN2S(=O)(=O)c1ccccc1 [Example 48, Thioacetic acid S-[2-(1-benzenesulfonyl-2,3-dihydro-1H-indol-5-yl)-2-oxo-ethyl]ester] | < 10000 nM
6 | < 1000 nM | CC(=O)SCC(=O)c1ccc2c(ccn2S(=O)(=O)c2ccccc2)c1 [Example 49, Thioacetic acid S-[2-(1-benzenesulfonyl-1H-indol-5-yl)-2-oxo-ethyl]ester] | < 1000 nM
7 | < 1000 nM | COc1cccc(S(=O)(=O)Nc2ccc(C(=O)CSC(C)=O)cn2)c1 [Example 50, Thioacetic acid S-{2-[6-(3-methoxy-benzenesulfonylamino)-pyridin-3-yl]-2-oxo-ethyl}ester] | < 1000 nM
